According to US6740335B1, “Liposomal camptothecin formulations” (priority 1997, dated 2004):
Structures can show the parent of a compound that is named as a salt.

Experiments:
[1] = system: A549 (lung carcinoma); test: 3H-thymidine incorporation cytotoxicity assay, A549; assay type: cell-based; conditions: Homo sapiens, A549, 42 h; read-out: Median IC50
Procedure: (§1) In vitro efficacy screening has been performed using GI147211 and liposomal formulations of GI147211. […] Standard tumor cell-based cytototoxicity assays assessing ^3H-thymidine incorporation were performed.
(§2) Tumor cells were seeded into 96-well tissue culture plates (1×10^4 cells/well)≡4 h prior to experimentation. […] Positive and negative (Tris treated) control groups were included on each assay plate. Tumor cells were then labeled with 0.25 μCi of [methyl-^3H] thymidine and incubated for 42 h under tissue culture conditions (37° C., 5% CO2, 100% relative humidity), except for C6, U251, A673 and B16-F1 cells which were incubated for 24 h. Cells were then lysed, harvested onto glass-fiber filters and unincorporated [methyl-^3H] thymidine removed by filter washing. Filters were processed for scintillation counting and cpm-^3H/well determined. […] Data are presented from multiple sets of experimentation, involving multiple liposomal formulations of GI147211.

[2] = system: ES-2 (ovarian carcinoma); test: 3H-thymidine incorporation cytotoxicity assay, ES-2; assay type: cell-based, human; conditions: Homo sapiens; ES-2, 42 h; read-out: Median IC50
Procedure: as §1, §2

[3] = system: U937 (Lymphoma); test: 3H-thymidine incorporation cytotoxicity assay, U937; assay type: cell-based, human; conditions: Homo sapiens, U-937; U937, 42 h; read-out: Median IC50
Procedure: as §1, §2

[4] = Plasma pharmacokinetics in Sprague-Dawley rats after IV dose; conditions: rat, in vivo
Procedure: The pharmacokinetics were then compared for free drug and membrane entrapped GI147211 liposomes dosed at 5 mg/kg in Sprague Dawley rats. Rats were dosed at 1 mg/kg to compare free GI147211 to passive and actively loaded liposomes.
Pharmacokinetic studies were carried out on various liposomal formulations of GI147211 in rats and mice by IV bolus administration. Plasma samples were precipitated with acetonitrile and the supematant for each sample was analyzed by reverse phase HPLC using isocratic elution and monitoring fluorescence. […] Concentration values were determined for unknown samples and quality control samples based on interpolation using a linear fit of the standard samples. In each study the average plasma concentration at each time point was calculated and utilized in the pharmacokinetic analysis. Noncompartmental analysis were carried out using WinNonlin™ (Standard Edition, version 1.5 ©, Scientific Consulting, Inc.) and the following parameters were calculated: the maximum concentration extrapolated at zero time (Cmax), the area under the curve from zero to infinite time (AUC total), the terminal phase half life (t½), the clearance rate (C1), and the volume of distribution at steady state (Vss).

[5] = system: LOX (melanoma); test: 3H-thymidine incorporation cytotoxicity assay, LOX; assay type: cell-based, human; conditions: Homo sapiens, 42 h, read-out: Median IC50
Procedure: as §1, §2

[6] = system: KB Tumor Xenograft; test: Repeat dose efficacy, KB xenograft; assay type: in vivo, nude mice; conditions: 14 mg/kg
Procedure: Drugs were dosed on days 1,8 and 15.

[7] = system: SKOV-3 (ovarian carcinoma); test: 3H-thymidine incorporation cytotoxicity assay, SKOV-3; assay type: cell-based, human; conditions: Homo sapiens, SK-OV-3; SKOV-3, 42 h; read-out: Median IC50
Procedure: as §1, §2

[8] = system: SW48 human colon tumor; test: Xenograft efficacy at identical dose, SW48; assay type: in vivo, nude mice; conditions: SW48, 9 mg/kg, QD7 × 3, two cycles; for % TGI: day 35, dihydrochloride
Procedure: In all the studies performed, subcutaneous tumors implanted on the anterior flank of nude mice were allowed to grow to an established size of 200+/−50 mm^3 prior to dosing drugs.
The xenograft models included the HT29 and SW48 human colon tumor lines, and the KB and KBV head-neck tumors. Drugs were dosed at either 6 or 9 mg/kg intravenously, on a weekly schedule for 3 consecutive weeks. In the SW48 xenograft study, the animals received a total of two cycles of therapy (6 injections), with a 10 day recovery period separating the two therapeutic courses. In the HT29 xenograft study a 12 and 14 mg/kg dose group was added.

**Q.** For CCC1(O)C(=O)OCc2c1cc1n(c2=O)Cc2c-1nc1cc3c(cc1c2CN1CCN(C)CC1)OCCO3 (stereo in doubt) [GI147211, 7-(4-methylpiperazinomethylene)-10,11-ethylenedioxy-20(S)-camptothecin dihydrochloride], which IC50 [1] is on record?
**A.** 6.94 ng/mL

**Q.** And the IC50 [2]?
**A.** 0.489 ng/mL

**Q.** And the IC50 [3]?
**A.** 4.22 ng/mL

**Q.** And the AUC ([4]; 1 mg/kg)?
**A.** 136 ng·h/mL

**Q.** What about the Cmax ([4]; 1 mg/kg) of the same molecule?
**A.** 100 ng/mL

**Q.** What about the Vd ([4]; 1 mg/kg) of the same molecule?
**A.** 9.23 L/kg

**Q.** And the clearance ([4]; 1 mg/kg)?
**A.** 123 mL/min/kg

**Q.** What about the half-life ([4]; 1 mg/kg) of the same molecule?
**A.** 1.17 h

**Q.** And the AUC ([4]; 5 mg/kg)?
**A.** 640 ng·h/mL

**Q.** What about the Cmax ([4]; 5 mg/kg) of the same molecule?
**A.** 690 ng/mL

**Q.** What about the clearance ([4]; 5 mg/kg) of the same molecule?
**A.** 132 mL/min/kg

**Q.** What about the half-life ([4]; 5 mg/kg) of the same molecule?
**A.** 2.45 h

**Q.** What about the IC50 [5] of the same molecule?
**A.** 1.41 ng/mL

**Q.** What about the “% TGI” value ([6]; day 15) of the same molecule?
**A.** 83%

**Q.** What about the “Mean Tumor Volume +/− (SD)” value ([6]; days 1, 8 and 15) of the same molecule?
**A.** 275 (67)

**Q.** And the “Toxic Deaths” value ([6]; days 1, 8 and 15)?
**A.** 0/8

**Q.** What about the IC50 [7] of the same molecule?
**A.** 1.63 ng/mL

**Q.** What about the “Log 10 Cell Kill” value [8] of the same molecule?
**A.** 1.9

**Q.** What about the “T-C (time to reach 1,000% Tumor Volume, treated vs control)” value [8] of the same molecule?
**A.** 40 days

**Q.** What about the “% TGI” value [8] of the same molecule?
**A.** 86%

**Q.** What about the “% TGI” value ([8]; listed as free drug) of the same molecule?
**A.** 86%
